Experimental data taken from US20050084468A1, “Antimicrobial cleaning composition” (Colgate-Palmolive Company, priority 2003, published 2005).

Columns and labels:
Format in all cases: cell-based
[1] = system: wild germs from hand's volunteers (mainly Staphylococcus epidermitis); experiment: Lasting antibacterial protection of the surface (treated ceramic tiles, imprint cfu count); settings: tiles rinsed 2×10 ml deionized water; inoculated 5 hours; counted after 48 hours at RT
Protocol: Measure of the Lasting Antibacterial Protection of the Surface […] After overnight drying of the treatment, tiles are rinsed with 2×10 ml deionized water and let dry for 1 hour. Tiles are then inoculated in the horizontal position for 5 hours with 200 μl of a suspension of wild germs from hand's volunteers (mainly Staphylococcus […]). After rinsing of the surface with 2×10 ml sterile tap water to remove the germs source, the contamination of the surface is determined by direct imprint with Tryptic Soy Agar plates (a nutritive gelified support). Colony forming units (=cfu=microorganisms) are counted after 48 hours incubation at RT.

[2] = system: wild germs from hand's volunteers (mainly Staphylococcus epidermitis); experiment: Lasting antibacterial protection, stronger rinsing with water
Protocol: (§1) Ceramic tiles are treated with 200 μl of the solutions to test; untreated tiles are used as reference. After overnight drying of the treatment, tiles are rinsed with 2×10 ml deionized water and let dry for 1 hour. Tiles are then inoculated in the horizontal position for 5 hours with 200 μl of a suspension of wild germs from hand's volunteers (mainly Staphylococcus epidermitis). After rinsing of the surface with 2×10 ml sterile tap water to remove the germs source, the contamination of the surface is determined by direct imprint with Tryptic Soy Agar plates (a nutritive gelified support). Colony forming units (=cfu=microorganisms) are counted after 48 hours incubation at RT.
Stronger Rinsing with Water:
Methodology is the same as described under example II but rinsing is operated either with 2×10 ml or 5×10 ml water or with a tap water shower head during 30 sec.

[3] = system: wild germs from hand's volunteers (mainly Staphylococcus epidermitis); experiment: Lasting antibacterial protection, PHMB-Mucin in surfactant solutions; settings: surfactant solution alone (NO PHMB-Mucin), 2.5% AI in water
Protocol: as §1
PHMB-Mucin in Surfactant Solutions
Test methodology is described under example II. We considered nonionic surfactants (Neodols), anionics (SLS, PS), and amphoteric (CAPB) at 2.5% Al in water. The mixture is Neodol 91-8 1.25%, Neodol 91-5 0.25%, CAPB 0.45%, PS 0.5%.

[4] = rinsing tap water shower head 30 sec.

Row | Molecule | Cfu/ceramic tile Average on 3 replicates [1] [Cfu/ceramic tile] | cfu/ceramic tile average on 3 replicates ([2]; rinsing 2 × 10 ml water) [cfu/ceramic tile] | cfu/ceramic tile average on 3 replicates ([2]; rinsing 5 × 10 ml water) [cfu/ceramic tile] | cfu/ceramic tile average on 3 replicates [2, 4] [cfu/ceramic tile] | cfu/tile - average on 3 replicates ([3]; series of PHMB 0.06%-Mucin 0.03%) [cfu/tile] | cfu/tile - average on 3 replicates ([3]; series of PHMB 0.09%-Mucin 0.05%) [cfu/tile]
1 | mucin [Mucin 0.03%] | 110 ± 18 | 37 ± 3 | 118 ± 43 | 145 ± 8 |  | 
2 | mucin [Mucin 0.1%] | 82 ± 15 | 50 ± 19 | 129 ± 36 | 149 ± 5 |  | 
3 | CCCCCCCCCCCCOS(=O)(=O)[O-].[Na+] [SLS, sodium lauryl sulfate] |  |  |  |  | 277 ± 34 | 77 ± 25
4 | mucin [Mucin 0.05%] | 68 ± 12 | 26 ± 7 | 98 ± 23 | 72 ± 17 |  | 
